Patent US8673894B2 (Hoffmann-La Roche Inc., priority 2010, dated 2014)

What was measured:
[1] = biological target: T1, endogenous cellular BACE2 (Rattus norvegicus, UniProt Q6IE75); test: Assay for BACE inhibition by measuring cellular TMEM27 cleavage; format: cell-based; details: INS-TMEM27 (INS1e-derived) cells, shed human TMEM27 in supernatant by ELISA
T1 construct: endogenous cellular BACE2 in the Ins1e rat cell line; endogenous in cells; host or cells: INS-TMEM27 (INS1e-derived rat insulinoma cell line with doxycycline-inducible full-length human TMEM27)
T1 sequence (Q6IE75 63-514): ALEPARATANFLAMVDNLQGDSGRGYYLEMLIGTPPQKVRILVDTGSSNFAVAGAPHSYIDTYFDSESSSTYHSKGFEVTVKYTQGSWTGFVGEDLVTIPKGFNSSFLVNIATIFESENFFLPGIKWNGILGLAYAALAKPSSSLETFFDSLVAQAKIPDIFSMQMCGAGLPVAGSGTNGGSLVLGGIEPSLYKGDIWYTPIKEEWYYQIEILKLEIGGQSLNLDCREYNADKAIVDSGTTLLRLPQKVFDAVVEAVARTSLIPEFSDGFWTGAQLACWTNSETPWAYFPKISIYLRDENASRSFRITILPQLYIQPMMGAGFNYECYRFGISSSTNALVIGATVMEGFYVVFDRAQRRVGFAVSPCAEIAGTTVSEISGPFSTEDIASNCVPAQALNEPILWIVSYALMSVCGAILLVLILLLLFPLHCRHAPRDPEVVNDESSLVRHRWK
In short: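 INS1e rat cells with doxycycline-inducible human TMEM27 get inhibitor 2 h before doxycycline (500 ng/ml final), then 46 h further at 37° C. Shed TMEM27 in the supernatant is measured by sandwich ELISA, and the EC50 comes from a curve fit of the ELISA signal.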

Aβ40 = test: Cellular Aβ-lowering assay; format: cell-based; details: HEK293 cells stably expressing human APP695, Aβ40 in supernatant by ELISA after 18-20 hrs; read-out: Cellular assay Abeta40 IC50
In short: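 HEK293 cells stably expressing human wild-type APP695 were treated with compound for 18-20 h at 37 °C in 0.8% v/v DMSO. Secreted Aβ40 in the supernatant was measured by sandwich ELISA (Aβ40 C-terminus-specific capture, HRP-4G8 detection, TMB read at 450 nm) and quantified against a pure Aβ peptide standard curve.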

Row | SMILES | IC50 [1] | IC50 (Aβ40)
1 | C[C@]1(c2cc(NC(=O)c3nn(C(F)F)cc3Cl)ccc2F)N=C(N)COC[C@@H]1F [Example 115, N-(3-((5R,6R)-3-Amino-6-fluoro-5-methyl-2,5,6,7-tetrahydro-1,4-oxazepin-5-yl)-4-fluorophenyl)-4-chloro-1-(difluoromethyl)-1H-pyrazole-3-carboxamide] | 6 nM | 3.8 nM
2 | CC[C@]1(c2cc(NC(=O)c3nn(C(F)F)cc3Cl)ccc2F)N=C(N)COCC1(F)F [Example 116, (R)-N-(3-(3-Amino-5-ethyl-6,6-difluoro-2,5,6,7-tetrahydro-1,4-oxazepin-5-yl)-4-fluorophenyl)-4-chloro-1-(difluoromethyl)-1H-pyrazole-3-carboxamide] | 189 nM | 20 nM
3 | CC[C@]1(c2cc(NC3CCCC3)ccc2F)N=C(N)COCC1(F)F [Example 119, (R)-5-(5-(Cyclopentylamino)-2-fluorophenyl)-5-ethyl-6,6-difluoro-2,5,6,7-tetrahydro-1,4-oxazepin-3-amine] | 9.03 nM | 0.8 nM

The remaining lines, values ahead:

Row | IC50 [1] | IC50 (Aβ40) | SMILES
4 | 30000 nM | 34 nM | CC1(C)OCC(N)=N[C@](C)(c2cc(NC(=O)c3ccc(C#N)cn3)c(F)cc2F)C1(F)F [Example 117, (R)-N-(5-(3-amino-6,6-difluoro-5,7,7-trimethyl-2,5,6,7-tetrahydro-1,4-oxazepin-5-yl)-2,4-difluorophenyl)-5-cyanopicolinamide]
5 | 14800 nM | 340 nM | CC1(C)OCC(N)=N[C@](C)(c2cc(NC(=O)c3ccc(Cl)cn3)c(F)cc2F)C1(F)F [Example 118, (R)-N-(5-(3-amino-6,6-difluoro-5,7,7-trimethyl-2,5,6,7-tetrahydro-1,4-oxazepin-5-yl)-2,4difluorophenyl)-5-chloropicolinamide]
